Source: patent publication US20260130925A1, “METHODS FOR TREATING CANCER” (Genesis Molecular AI, Inc., priority 2022, published 2026)

Key:
PI3K H1047R = PI3K H1047R (Homo sapiens, UniProt P42336, H1047R); test: PI3K H1047R ADP-Glo (PI/PS); format: biochemical; set-up: PI3K H1047R ADP-Glo (PI/PS) IC50: H1047R Selectivity: reference not given here; conditions: for IC50: PI/PS substrate
[1] = target: T1, PI3Kα H1047R in T47D cells (Homo sapiens, UniProt P42336, H1047R); test: PI3Kα cellular assay: T47D pAKT S473 HTRF; format: cell-based; conditions: for T47D pAKT S473 HTRF IC50 (H1047R): T47D (H1047R) selectivity over SKBR3 (WT): T47D (H1047R) versus SKBR3 (WT) cells; for IC50: T47D cells (H1047R), serum starved, 1 hr compound, 20 ng/ml EGF 10 min
T1 construct: endogenous in cells; host or cells: T47D
T1 sequence (P42336 whole entry H1047R): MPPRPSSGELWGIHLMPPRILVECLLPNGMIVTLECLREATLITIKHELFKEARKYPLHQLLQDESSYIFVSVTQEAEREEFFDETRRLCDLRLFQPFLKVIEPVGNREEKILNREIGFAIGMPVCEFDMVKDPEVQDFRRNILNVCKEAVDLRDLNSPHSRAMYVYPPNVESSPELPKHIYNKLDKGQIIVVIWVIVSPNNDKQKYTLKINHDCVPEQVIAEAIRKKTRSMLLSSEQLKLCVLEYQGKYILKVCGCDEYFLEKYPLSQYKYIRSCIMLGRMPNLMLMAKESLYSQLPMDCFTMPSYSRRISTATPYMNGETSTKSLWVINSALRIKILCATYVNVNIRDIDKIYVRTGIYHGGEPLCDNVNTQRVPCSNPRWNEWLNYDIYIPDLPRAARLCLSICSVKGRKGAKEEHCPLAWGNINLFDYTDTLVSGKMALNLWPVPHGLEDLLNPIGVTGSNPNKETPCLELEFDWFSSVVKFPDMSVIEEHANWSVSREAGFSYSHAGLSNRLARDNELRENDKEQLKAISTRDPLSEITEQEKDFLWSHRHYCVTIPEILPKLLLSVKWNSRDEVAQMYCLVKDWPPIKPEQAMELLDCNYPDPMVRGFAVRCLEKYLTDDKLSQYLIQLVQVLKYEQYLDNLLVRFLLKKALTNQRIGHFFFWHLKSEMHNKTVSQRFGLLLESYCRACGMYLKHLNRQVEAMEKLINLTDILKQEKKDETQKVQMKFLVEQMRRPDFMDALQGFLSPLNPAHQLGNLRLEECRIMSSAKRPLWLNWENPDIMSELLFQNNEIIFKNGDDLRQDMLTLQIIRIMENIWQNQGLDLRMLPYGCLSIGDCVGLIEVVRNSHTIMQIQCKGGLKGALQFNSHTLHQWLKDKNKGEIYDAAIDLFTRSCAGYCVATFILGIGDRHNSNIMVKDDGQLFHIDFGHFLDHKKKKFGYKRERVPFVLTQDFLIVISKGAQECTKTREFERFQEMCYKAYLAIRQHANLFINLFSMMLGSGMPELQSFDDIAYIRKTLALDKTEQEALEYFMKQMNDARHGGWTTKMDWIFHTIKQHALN
T1 sequence (P27986 whole entry partner): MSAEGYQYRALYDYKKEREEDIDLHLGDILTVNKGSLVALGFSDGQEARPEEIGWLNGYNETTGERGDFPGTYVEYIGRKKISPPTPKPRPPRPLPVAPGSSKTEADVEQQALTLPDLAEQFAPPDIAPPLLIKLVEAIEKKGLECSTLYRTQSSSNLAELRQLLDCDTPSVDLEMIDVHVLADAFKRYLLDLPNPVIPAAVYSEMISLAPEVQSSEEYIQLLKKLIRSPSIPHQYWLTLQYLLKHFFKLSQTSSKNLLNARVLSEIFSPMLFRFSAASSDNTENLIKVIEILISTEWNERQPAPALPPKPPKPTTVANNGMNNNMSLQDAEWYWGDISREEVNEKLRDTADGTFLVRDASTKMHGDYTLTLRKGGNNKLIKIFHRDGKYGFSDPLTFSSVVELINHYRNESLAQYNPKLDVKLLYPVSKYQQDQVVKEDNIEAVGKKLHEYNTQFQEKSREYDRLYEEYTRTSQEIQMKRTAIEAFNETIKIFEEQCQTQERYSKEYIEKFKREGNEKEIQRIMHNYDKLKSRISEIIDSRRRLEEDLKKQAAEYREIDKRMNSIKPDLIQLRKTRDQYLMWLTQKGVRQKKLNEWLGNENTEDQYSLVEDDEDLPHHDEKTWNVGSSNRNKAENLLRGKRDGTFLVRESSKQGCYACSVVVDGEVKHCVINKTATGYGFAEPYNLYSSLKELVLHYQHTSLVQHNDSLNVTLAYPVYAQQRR
Description: PI3Kα cellular assay experimental procedure: SKBR3 or T47D cells are seeded in DMEM containing 10% FBS at 25 k cells/well into 96-well cell culture format. Cells are incubated overnight at 37° C. in a 5% CO2 incubator and the following day cell media is aspirated, adherent cells are washed 1× with room temperature PBS prior to serum-free media application. Cells are returned to 37° C. 5% CO2 incubator and incubated a further 16 hrs. Compounds are added to serum starved adherent cells with a top dose of 10,000 nM and 3× multiple dose reductions for a minimum dose of 0.5 nM diluted in DMSO. Cell/compound incubation continues for 1 hr in a 37° C., 5% CO2 incubator prior to 10 minute PIK3CA stimulation with 20 ng/ml EGF. Cells treated with 0.1% DMSO and 20 ng/mL EGF are employed as negative control, cells treated with 10 uM Alpelisib and 20 ng/mL EGF are employed as a positive control. After 10 mins, plates are removed from incubator and cells are lysed with buffer and shaking 45 minutes. 20 μL of lysate is transferred to an opti-384 plate and 2.5 μl of Phospho-AKT d2 antibody with 2.5 μl of Phospho-AKT Eu Cryptate solution in the detection buffer are added to each well. 384 well plate is left overnight at room temperature before reading HTRF on an Envision plate reader.

Sequence of PI3K H1047R (P42336 whole entry H1047R): as the sequence (P42336 whole entry H1047R) above
Sequence of PI3K H1047R (P27986 whole entry partner): as the sequence (P27986 whole entry partner) above

Compound	PI3K H1047R ADP-Glo (PI/PS) IC50: H1047R Selectivity (PI3K H1047R)	IC50 (PI3K H1047R) [nM]	T47D pAKT S473 HTRF IC50 (H1047R): T47D (H1047R) selectivity over SKBR3 (WT) [1]	IC50 [1] [nM]
Cc1cc(C(C)Nc2ccccc2C(=O)O)c2nc(N3CCC(C)(C)CC3)ncc2c1 (stereo not shown) [Compound 10]	A (A denotes >20-fold)	< 1000	A (A denotes >20-fold)	< 750
Cc1cc(C(C)Nc2ccccc2C(=O)O)c2[nH]c(N3CCOCC3)nc(=O)c2c1 (stereo not shown) [Compound 19]	B (B denotes 20-fold≥value>5-fold)	1000 to 10000	B (B denotes 20-fold≥value>5-fold)	750 to 2000
Cc1cc(C(C)Nc2ccccc2C(=O)O)c2nc(N3CCC(C)(C)CC3)nc(C#N)c2c1 (stereo not shown) [Compound 26, 2-((1-(4-cyano-2-(4,4-dimethylpiperidin-1-yl)-6-methylquinazolin-8-yl)ethyl)amino)benzoic acid]	C (C denotes ≤5-fold)	≥ 10000	C (C denotes ≤5-fold)	≥ 2000
Cc1cc(C(C)Nc2ccccc2C(=O)O)c2cc(N3CCOCC3)ncc2c1 (stereo not shown) [Compound 37]	A (A denotes >20-fold)	< 1000	A (A denotes >20-fold)	< 750
Cc1cc([C@@H](C)Nc2ccccc2C(=O)O)c2cc(N3CCOCC3)ncc2c1 [Compound 57]	A (A denotes >20-fold)	< 1000	A (A denotes >20-fold)	< 750
Cc1cc([C@H](C)Nc2ccccc2C(=O)O)c2cc(N3CCOCC3)ncc2c1 [Compound 58]		≥ 10000	C (C denotes ≤5-fold)	≥ 2000
Cc1cc([C@H](C)Nc2ccccc2C(=O)O)c2nc(N3CCC(C)(C)CC3)nc(C#N)c2c1 [Compound 60]		≥ 10000	C (C denotes ≤5-fold)	≥ 2000
Cc1cc(C(C)Nc2ccccc2C(=O)O)c2cc(-c3ccnc(C4CC4)c3)nc(C(N)=O)c2c1 (stereo not shown) [Compound 73]	A (A denotes >20-fold)	< 1000	A (A denotes >20-fold)	< 750
Cc1cc(C(C)Nc2ccccc2C(=O)O)c2cc(OC3CCOCC3)ncc2c1 (stereo not shown) [Compound 74]	A (A denotes >20-fold)	< 1000	A (A denotes >20-fold)	< 750
Cc1cc([C@H](C)Nc2ccccc2C(=O)O)c2cc(N3Cc4ccccc4C3)ncc2c1 [Compound 80]		≥ 10000	C (C denotes ≤5-fold)	≥ 2000
Cc1cc([C@@H](C)Nc2ccccc2C(=O)O)c2cc(N3Cc4ccccc4C3)ncc2c1 [Compound 81]	A (A denotes >20-fold)	< 1000	A (A denotes >20-fold)	< 750

Second part, the compound after the results:

PI3K H1047R ADP-Glo (PI/PS) IC50: H1047R Selectivity (PI3K H1047R)	IC50 (PI3K H1047R) [nM]	T47D pAKT S473 HTRF IC50 (H1047R): T47D (H1047R) selectivity over SKBR3 (WT) [1]	IC50 [1] [nM]	Compound
A (A denotes >20-fold)	< 1000	A (A denotes >20-fold)	< 750	Cc1cc(C(C)Nc2ccccc2C(=O)O)c2nc(-c3ccc(F)cc3)n(C)c(=O)c2c1 (stereo not shown) [Compound 38]
A (A denotes >20-fold)	< 1000	A (A denotes >20-fold)	< 750	Cc1cc(C(C)Nc2ccccc2C(=O)O)c2nc(-c3ccc4c(c3)c(C)nn4C)n(C)c(=O)c2c1 (stereo not shown) [Compound 40]
	≥ 10000	C (C denotes ≤5-fold)	≥ 2000	Cc1cc([C@@H](C)Nc2ccccc2C(=O)O)c2nc(-c3ccc4c(c3)c(C)nn4C)n(C)c(=O)c2c1 [Compound 41]
A (A denotes >20-fold)	< 1000	A (A denotes >20-fold)	< 750	Cc1cc(C(C)Nc2ccccc2C(=O)O)c2cc(N3Cc4ccccc4C3)nc(O)c2c1 (stereo not shown) [Compound 51]
	≥ 10000	B (B denotes 20-fold≥value>5-fold)	750 to 2000	Cc1cc([C@H](C)Nc2ccccc2C(=O)O)c2cc(-c3ccc(F)cc3)n(C)c(=O)c2c1 [Compound 75]
A (A denotes >20-fold)	< 1000	A (A denotes >20-fold)	< 750	Cc1cc([C@@H](C)Nc2ccccc2C(=O)O)c2cc(-c3ccc(F)cc3)n(C)c(=O)c2c1 [Compound 76]
A (A denotes >20-fold)	< 1000	A (A denotes >20-fold)	< 750	Cc1cc(C(C)Nc2ccccc2C(=O)O)c2cc(-c3ccc(F)cc3)n(C)c(=O)c2c1 (stereo not shown) [Compound 77]
A (A denotes >20-fold)	< 1000	A (A denotes >20-fold)	< 750	Cc1cc([C@H](C)Nc2ccccc2C(=O)O)c2cc(-c3ccnc(C4CC4)c3)n(C)c(=O)c2c1 [Compound 78]
	≥ 10000	C (C denotes ≤5-fold)	≥ 2000	Cc1cc([C@@H](C)Nc2ccccc2C(=O)O)c2cc(-c3ccnc(C4CC4)c3)n(C)c(=O)c2c1 [Compound 79]
A (A denotes >20-fold)	< 1000	A (A denotes >20-fold)	< 750	Cc1cc(C(C)Nc2ccccc2C(=O)O)c2cc(-c3ccnc(C4CC4)c3)n(C)c(=O)c2c1 (stereo not shown) [Compound 82]
C (C denotes ≤5-fold)	≥ 10000	C (C denotes ≤5-fold)	≥ 2000	Cc1cc([C@H](C)Nc2ccccc2C(=O)O)c2cc(-c3ccc4c(c3)c(C)nn4C)ncc2c1 [Compound 83]
A (A denotes >20-fold)	< 1000	A (A denotes >20-fold)	< 750	Cc1cc([C@@H](C)Nc2ccccc2C(=O)O)c2cc(-c3ccc4c(c3)c(C)nn4C)ncc2c1 [Compound 84]
C (C denotes ≤5-fold)	1000 to 10000	B (B denotes 20-fold≥value>5-fold)	≥ 2000	Cc1cc([C@H](C)Nc2ccccc2C(=O)O)c2cc(-c3ccc4c(c3)c(C)nn4C)n(C)c(=O)c2c1 [Compound 85]
A (A denotes >20-fold)	< 1000	A (A denotes >20-fold)	< 750	Cc1cc(C(C)Nc2ccccc2C(=O)O)c2cc(-c3ccc4c(c3)c(C)nn4C)ncc2c1 (stereo not shown) [Compound 88]
